Laboratory results as given in US5220042A, “1,4-benzoquinone derivatives and benzene derivatives, and process for preparing the same” (priority 1984, dated 1993).

What was measured:
Type in all cases: cell-based, guinea pig (Hartley strain)
[1] = tested on: SRS-A release from lung fragments; test: Inhibition of SRS-A release from sensitized guinea pig lung fragments; settings: Cavia porcellus, read-out: Inhibition ratio (%) SRS-A
Procedure, shortened: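 Lung fragments from ovalbumin-sensitized male Hartley guinea pigs were preincubated 5 min at 37 °C in Tyrode's, given compound in DMSO for 5 min, then challenged with ovalbumin for 10 min. Released histamine was bioassayed by guinea pig ileum contraction at 30 s. SRS-A was read at 2 min with 10^-6 M pyrilamine against a crude SRS-A standard curve.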

[2] = tested on: histamine release from lung fragments; test: Inhibition of histamine release from sensitized guinea pig lung fragments; settings: Cavia porcellus, read-out: Inhibition ratio (%) Histamine
Experimental: Inhibitory activities on the release of SRS-A and histamine of the present compounds were determined.
A male guinea pig (Hartley strain) (body weight: about 300 g) was sensitized by a method according to P. Anderson: "Int. Archs. Allergey appln. Immunol., Vol. 64, pages 249-258 (1981). Thus, 30 mg/kg of cyclophosphamide was intraperitoneally administered to the guinea pig, and 2 days after 1 microgram of ovalbumin (manufactured by Sigma Chemical Co., St. Louis, Mo. U. S. A.) together with 10 mg of aluminium hydroxide gel were intraperitoneally administered so as to have the animal sesitized.
50 Days after the sesitization, the animal was killed by exsanguination, and the lung was isolated from the animal and was perfused with 20 ml of Tyrode's solution, then immersed in an ice-cooled Tyrode's solution. The parenchyma of the lung was cut by using McIlwain-type tissue chopper to make it into fragments of lung having 2 mm square and the fragments were washed with Tyrode's solution. 400 Milligrams of sectiles of lung were suspended in 3.6 ml of Tyrode's solution, and this suspension was preincubated at 37° C. for 5 minutes, then 4 microliters of dimethyl sulfoxide solution of the test compound, in the case of control 4 microliters of dimethyl sulfoxide alone was added to the suspension. 5 Minutes after, 0.4 ml of 100 micrograms/ml of ovalbumin solution added so as to release SRS-A for 10 minutes. The suspension was ice-cooled and filtered through gauze, the filtrate was centrifuged at 2,000 rpm for 10 minutes and the supernatant was collected. The supernatant was stored in freezed state at -80° C. until bio-assay was conducted.
Amounts of SRS-A and histamine contained in the supernatant were determined by bio-assay using ileum of guinea pig.
A piece of the ileum (2-3 cm of length) positioned from 15-25 cm from the opening portion of ileocecum was isolated from a male guinea pig (Hartley strain) (body weight: 400-600 g) which was fasted for 24 hours. The piece of ileum was hanged vertically in a Magnus tube which was filled with 10 ml of Tyrode's solution containing 10^-7 M of atropine sulfate under air stream conditions. The isotonic contraction of the piece of the ileum was measured at 0.5 g of load by using an isotonic transducer "TD-112S" (manufactured by Nihon Koden Co., Ltd.). The measurements were carried out after the reaction to histamine of the piece of ileum was kept constant. Bioassay of histamine was measured by using the value of contraction shown in 30 seconds after the addition of the supernatant. Bioassay of on SRS-A was measured by using the value of contraction shown at 2 minutes after the addition of the supernatant in the presence of 10^-6 M of pyrilamine (manufactured by Sigma Chemical Co.), and compared with the standard curve of crude SRS-A released from the fragments of the lung.

5-lipoxygenase = biological target: T1, 5-lipoxygenase (Cavia porcellus, UniProt A0A286X958); test: 5-Lipoxygenase inhibitory activity (conversion of 14C-arachidonic acid to 5-HETE) in guinea pig peritoneal exudate cells; settings: read-out: inhibition ratio (%) of 5-lipoxygenase activity
T1 construct: endogenous in cells; host or cells: guinea pig (Hartley strain) casein-elicited peritoneal exudate cells, intact cell suspension
T1 sequence (A0A286X958 1-674): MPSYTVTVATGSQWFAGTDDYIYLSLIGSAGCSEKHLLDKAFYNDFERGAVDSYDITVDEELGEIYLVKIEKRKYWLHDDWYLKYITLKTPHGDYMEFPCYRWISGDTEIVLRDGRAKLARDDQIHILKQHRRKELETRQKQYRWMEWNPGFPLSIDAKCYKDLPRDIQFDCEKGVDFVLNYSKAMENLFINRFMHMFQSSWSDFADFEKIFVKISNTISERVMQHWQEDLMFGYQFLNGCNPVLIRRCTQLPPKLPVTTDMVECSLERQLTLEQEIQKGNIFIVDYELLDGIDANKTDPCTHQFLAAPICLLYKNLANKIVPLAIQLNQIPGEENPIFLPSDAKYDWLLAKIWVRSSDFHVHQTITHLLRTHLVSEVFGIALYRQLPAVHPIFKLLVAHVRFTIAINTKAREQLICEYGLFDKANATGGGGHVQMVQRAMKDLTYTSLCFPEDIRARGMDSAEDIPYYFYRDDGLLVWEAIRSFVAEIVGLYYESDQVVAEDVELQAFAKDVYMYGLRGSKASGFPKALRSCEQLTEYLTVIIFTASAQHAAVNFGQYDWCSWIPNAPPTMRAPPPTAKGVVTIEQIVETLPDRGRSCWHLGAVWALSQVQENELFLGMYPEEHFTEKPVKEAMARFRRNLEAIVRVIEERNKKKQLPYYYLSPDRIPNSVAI
Experimental: 5-Lipoxygenase inhibitory activity of the present compounds was determined by a method according to procedures described in "J. Biol. Chem., Vol. 256, pages 4156-4159, (1981, Ibid. Vol. 258, pages 5754-5758 (1983).
(1) Preparation of Test Cells
A guinea pig (Hartley strain) (500-650 g body weight) was intraperitoneally administered with 2%-casein solution in 3/50 the volume of body weight. 14 Hours after the administration, the animal was sacrificed by bleeding and the peritoneal cavity was washed with Dulbecco's phosphate buffered saline (PBS) containing 3 U/ml of heparin and the exudate cells were harvested. The sample of cells was washed twice with Dulbecco's PBS (-), then the cells were suspended in Dulbecco's PBS (-), containing 1 mM of calcium chloride and 5.5 mM of glucose, so as to make a suspension having the concentration of 2.5×10^7 cells/ml.
To 0.2 ml of the above-mentioned cell suspension was added 10^-5 M of Indomethacine, and incubated at 30° C. for 2 minutes. Each of the appropriate concentrations of test compounds was added to the suspension respectively, further incubated for 2 minutes. Next, 10 μm of Ionophore A23187 (manufactured by Calbiochem-Behring, San Diego, Calif., U. S. A) was added to the suspension, further, 10 μm of ^14 C-arachidonic acid (manufactured by Amersham Japan, Ltd., Tokyo, Japan) was added and initiated the reaction. 3 Minutes after the initiation of the reaction, 0.1 ml of 0.2M-citric acid was added so as to terminate the reaction. 1.2 Milliliters of ethyl acetate was added to the reaction mixture and shaked for 5 minutes. The reaction mixture was centrifuged at 3,000 rpm for 5 minutes so as to separate the organic layer from the aqueous layer. 1 Milliliter of the organic layer (the upper layer) was dehydrated by passing through a mini-column packed with anhydrous sodium sulfate. The dehydrated organic layer was dried under nitrogen gas stream. The residue obtained was dissolved in ethyl acetate, and the total amount of the ethyl acetate solution was spotted onto thin layer chromochromatography (TCL) plate (Art. 11845 manufactured by E. Merck A. G.). The TCL was carried out with a mixed solvent of diethyl ether:petroleum:ether:acetic acid (50:50:1 volume/volume), then the radioactive metabolites on the plate were detected by using "Ultrafilm ^3 H" (a trademark for a X-ray film, manufactured by LKB Co.). Each fractions corresponding to the metabolites was scraped in to a scintillation vial, and 5 ml of "Scintilator ACS-II" (manufactured by Amersham Japan, Ltd.), was added then the radio-activity was determined by means of a liquid scintillation counter.

inhibition at 0.3 µM (5-lipoxygenase; concentration 3 × 10^-7 M): 58% | inhibition at 1 µM (5-lipoxygenase; concentration 10^-6 M): 81% | inhibition at 0.1 µM (5-lipoxygenase; concentration 10^-7 M): 17%
Structure (SMILES): COC1=CC(=O)C(OC)=C(CCCCCCC2=C(OC)C(=O)C=C(OC)C2=O)C1=O [Test Compound No. 10, 2,2'-Hexamethylenebis(3,6-dimethoxy-1,4-benzoquinone)]
inhibition at 3 µM ([1]; Table 2, dose 3 μM): 73.4% | inhibition at 30 µM ([1]; Table 2, dose 30 μM): > 95.2% | inhibition at 3 µM ([2]; Table 2, dose 3 μM): 20.6% | inhibition at 30 µM ([2]; Table 2, dose 30 μM): 22.4%
